Source: patent US20060093577A1, “Combination anti-viral compositions and methods of use” (priority 2004, published 2006)

Key:
BVDV [1] = assay: Two-way combination inhibition-of-CPE assay, BVDV-infected MDBK cells, MOI 0.01 (MacSynergy, isobologram); format: cell-based, bovine viral diarrhea virus; details: for EC50: Bovine viral diarrhea virus isolates and strains, MDBK
Description: (§1) Each two-way combination was performed twice.
Initially, as was done in Example 1, individual compound potency (EC50) for inhibition of BVDV-induced cytopathic effects in MDBK cells was determined for each combination experiment (see Table 5). Minimal experiment-to-experiment variability in individual drug potency was observed.
A greater positive percent (synergy) volume is indicative of a synergistic effect. Values less than 25 μM/ml^2% or 25 μM(IU)/ml(well)^2% are insignificant; values between 25 and 50 μM/ml^2% or 25 and 50 μM(IU)/ml(well)^2% are considered minor but significant; values between 50 and 100 μM/ml^2% or μM(IU)/ml(well)^2% indicate moderate synergy that may be indicative of a significant synergistic effect in vivo; and values greater than 100 μM/ml^2% or μM(IU)/ml(well)^2% indicate strong synergy that is likely indicative of a significant synergistic effect in vivo.

BVDV [2] = assay: Two-way combination inhibition-of-CPE assay, BVDV-infected MDBK cells, MOI 0.05 (Example 5); format: cell-based, bovine viral diarrhea virus; details: read-out: EC50 protection of MDBK cells from BVDV-induced cytotoxicity
Description: as §1
Individual potencies (EC50) of each of the drugs for inhibition of BVDV-induced cytopathic effects in MDBK cells were determined for each combination experiment (see Table 9).

BVDV [3] = assay: Protection of MDBK cells from BVDV-induced cytotoxicity (MTS/PMS CPE reduction); format: cell-based; details: Bovine viral diarrhea virus isolates and strains
Description: Cell proliferation assays were performed using a non-radioactive cell proliferation MTS/PMS assay (MTS: 3-(4,5-dimethylthiazol-2-yl)-5-(3-carboxymethoxy phenyl)-2-(4-sulfophenyl)-2H-tetrazolium (Promega Corporation, Madison, Wis.); PMS: phenazine methosulfate (Sigma Aldrich, St. Louis, Mo.)). MDBK cells were seeded into 96-well plates at a density of approximately 2×10^4 cells per well. The cultures were incubated 3-24 hours to permit attachment of the cells to the plates prior to infection and addition of compounds. The appropriate number of PFU of BVDV were added to each well to achieve the desired MOI (0.1 or 0.01); the cells were exposed to the virus diluted at the appropriate concentration in phosphate buffered saline (PBS) containing 1% horse serum for 1 to 2 hours. The virus inoculum was then removed and the cells were washed with PBS containing 1% HS. The test compounds, castanospermine, ribavirin, and interferon-α were dissolved in cell growth media with 2% HS and added to the cells at varying concentrations, and then incubated at 37° C. in the presence of 5% CO2 for 3-4 days. Uninfected cells and infected, untreated cells (i.e., without compound) were used as additional controls. After the 3-4 days of incubation, a combined MTS/PMS solution was added into each well assay plate containing 100 μL of cells in culture medium to obtain final concentrations of 333 μg/ml MTS and 25 μM PMS. A spectrophotometer plate reader was used to measure the absorbance at 490 nm after incubation of the 96-well plate for 1 to 4 hours at 37° C. in a humidified, 5% CO2 atmosphere. The mean absorbance in each set of triplicate wells was determined. Antiviral activity was measured as MTS conversion relative to the differential between the conversion for cell (non-infected) and viral (non-drug-treated) controls. The cytopathic effect (CPE) reduction for each concentration of the tested compound, which correlated with antiviral activity, was calculated as follows. % CPE reduction=[(D−ND)/(NI−ND)]×100, in which D (drug-treated) is the absorbance of drug-treated cells; ND (non drug-treated) is the absorbance of untreated infected cells; and NI (non-infected) is the absorbance of non-infected cells.
The EC50 represents the concentration of the drug that protects 50% of the cells from BVDV induced cytotoxicity (i.e., 50% CPE reduction). CC50 equals the concentration that affects the viability of 50% of the MDBK cells.

[4] = CC50, viability of MDBK cells (Example 1); details: bovine
Description: MDBK cells were seeded into 96-well plates at a density of approximately 2×10^4 cells per well. The cultures were incubated 3-24 hours to permit attachment of the cells to the plates prior to infection and addition of compounds. […] The mean absorbance in each set of triplicate wells was determined. Antiviral activity was measured as MTS conversion relative to the differential between the conversion for cell (non-infected) and viral (non-drug-treated) controls.

BVDV strain NADL = assay: Inhibition of BVDV release from MDBK cells; format: cell-based; details: Bovine viral diarrhea virus isolates and strains, MOI about 0.01, 24 hours
Description: The cell cultures were incubated 3-24 hours to allow attachment of the cells to the tissue culture plates prior to infection and addition of compounds. The appropriate number of plaque forming units (PFU) of BVDV strain NADL (ATCC VR-534) diluted in sterile PBS containing 1% HS were added to each well to achieve the desired multiplicity of infection (MOI) (about 0.01). The cells were exposed to the virus at 37° C., 5% CO2 for 1.5 hours, and then washed with PBS. The test compounds, dissolved in cell growth media with 2% HS, were then added to the cells at varying concentrations. The plates were incubated at 37° C., 5% CO2 for 24 hours (one cycle of BVDV replication). The 96-well plates were then centrifuged at low speed to pellet the cells. The supernatant was serially diluted and used to infect a new monolayer of cells in 12-well plates. The cell monolayer was then overlaid with 0.5% agarose dissolved in cell growth media with 5% HS containing (1) castanospermine (Phytex, Australia); (2) ribavirin (Ribavirin, Sigma); (3) IFN-α2b (PBL Biomedical Laboratories, Piscataway, N.J.); or (4) alone (i.e., no added test compound). The treated cells were incubated for 3 to 5 days at 37° C. under 5% CO2, fixed with formaldehyde, stained with crystal violet or methylene blue, washed in double distilled water, and finally air dried at room temperature. Virus plaques formed were quantified by manual counting, and titer was determined.

BVDV [5] = assay: Plaque reduction assay; format: cell-based; details: Bovine viral diarrhea virus isolates and strains
Description: The BVDV virus stock was serially diluted in phosphate buffered saline (PBS) containing 1-5% horse serum (HS). MDBK cells were grown to confluence in culture dishes and were infected at 37° C. with BVDV at various multiplicity of infection (<1 to >0.001). After 1.5 hours of adsorption, the inoculum was removed. The cell monolayer was overlaid with 0.5% agarose dissolved in cell growth media containing 5% HS with and without test compound(s) (castanospermine, ribavirin, or IFN-α). The dishes were incubated for 3 to 5 days at 37° C. under 5% CO2. The monolayer of MDBK cells was fixed with formaldehyde, stained with crystal violet or methylene blue according to standard methods, and then washed in double distilled water. Following washing, the plates air dried at room temperature. The virus plaques formed in the MDBK cell cultures were quantified by manual counting. The inhibitory activities of test compounds were determined by calculating the percent (%) reduction in plaques as follows: % reduction in plaques=[…].

[6] = CC50 in plaque reduction assay table (Example 3); format: cell-based; details: bovine
[7] = read-out: EC50 (50% CPE reduction), MOI = 0.01
[8] = read-out: EC50 (50% CPE reduction), MOI = 0.1
[9] = MOI 0.01, combination experiments, compound alone, read-out: EC50 protection from BVDV-induced cytotoxicity, individual compound
[10] = Bovine viral diarrhea virus isolates and strains, MDBK

Interferon-α2b
Average Interferon-α2b EC50 (BVDV [1]; Castanospermine added 0 μM): 16 IU/mL | Average Interferon-α2b EC50 (BVDV [1]; Castanospermine added 1.2 μM): 18 IU/mL | Average Interferon-α2b EC50 (BVDV [1]; Castanospermine added 3.7 μM): 13 IU/mL | Average Interferon-α2b EC50 (BVDV [1]; Castanospermine added 11 μM): 7 IU/mL | Average Interferon-α2b EC50 (BVDV [1]; Castanospermine added 33 μM): 1 IU/mL | Average Interferon-α2b EC50 (BVDV [1]; Castanospermine added 100 μM): <1 IU/mL | EC50 protection from BVDV-induced cytotoxicity, individual compound (BVDV [1]; MOI 0.01, combination experiments, compound alone): 19 ± 6 IU/mL | fold decrease of interferon-α2b EC50 (BVDV [1]; at 11 μM of castanospermine): ~2 fold

CCCCN1C[C@H](O)[C@@H](O)[C@H](O)[C@H]1CO [NB-DNJ, N-butyl-DNJ]
EC50 (BVDV [2]; MOI 0.05, individual drug): > 500 µM

NC(=O)c1ncn([C@@H]2O[C@H](CO)[C@@H](O)[C@H]2O)n1 [Ribavirin, reference compound]
EC50 (BVDV [3]; [7]): 4.4 ± 2 µM | EC50 (BVDV [3]; [8]): 9 ± 1 µM | CC50 [4]: 57 ± 34 µM | EC50 (BVDV strain NADL): 2.4 ± 2.2 µM | EC90 (BVDV strain NADL): 4.9 ± 1.9 µM | EC50 (BVDV [5]): 9.1 ± 6.3 µM | CC50 ([6]; MDBK cells, Table 3, read-out: CC50): 250 µM | EC50 (BVDV [1]; [9]): 4 ± 2 µM | fold reduction of ribavirin EC50 (isobologram) (BVDV [1]; at about 10 IU/mL interferon-α2b): > 6 fold

NC12CC3CC(CC(C3)C1)C2 [Amantadine, amantadine]
EC50 (BVDV [2]; [10]): 400 µM

O[C@H]1[C@H](O)[C@@H](O)CN2CC[C@H](O)[C@H]12 [Castanospermine, [1S-(1α,6β,7α,8β,8αβ)]-octahydro-1,6,7,8-indoli-zinetetrol]
EC50 (BVDV [3]; [7]): 61.5 ± 15.4 µM | EC50 (BVDV [3]; [8]): 177 ± 14.5 µM | CC50 [4]: > 1000 µM | EC50 (BVDV strain NADL): 14 ± 8 µM | EC90 (BVDV strain NADL): 83 ± 21 µM | EC50 (BVDV [5]): 110 ± 82 µM | CC50 [6]: > 1000 µM | EC50 (BVDV [1]; Interferon-α2b added 0 IU/mL, read-out: Average Castanospermine EC50): 52 µM | EC50 (BVDV [1]; Interferon-α2b added 0.7 IU/mL, read-out: Average Castanospermine EC50): 39 µM | EC50 (BVDV [1]; Interferon-α2b added 2.2 IU/mL, read-out: Average Castanospermine EC50): 19 µM | EC50 (BVDV [1]; Interferon-α2b added 6.7 IU/mL, read-out: Average Castanospermine EC50): 12 µM | EC50 (BVDV [1]; Interferon-α2b added 20 IU/mL, read-out: Average Castanospermine EC50): 1 µM | EC50 (BVDV [1]; Interferon-α2b added 60 IU/mL, read-out: Average Castanospermine EC50): < 1 µM | EC50 (BVDV [1]; [9]): 59 ± 16 µM | dose-dependent reduction in EC50 of castanospermine (BVDV [1]; addition of increasing concentrations of interferon-α2b): > 52 fold | fold reduction of castanospermine EC50 (isobologram) (BVDV [1]; at 10 IU/mL of interferon-α2b): > 7 fold | fold decrease of castanospermine EC50 (BVDV [1]; at 20 IU/mL interferon-α2b): ~50 fold | EC50 (BVDV [2]; [10]): > 100 µM
